Reference: patent US12391646B2, “Using adiponectin receptor agonists to treat inflammation and bone diseases in diabetes” (Trustees of Tufts College, priority 2020, dated 2025)

What was measured:
AdipoRs = settings: cited from earlier work
RAW 264.7 cells = assay: CCK-8 cell viability assay, Example 2; settings: 2 days, compared with vehicle-treated group
Procedure: RAW 264.7 cells were treated with receptor activator of nuclear factor KB ligand (RANKL) (100 ng/ml) for 2 days with or without AdipoRon (20 μM) or AdipoAI (5 μM) for another 2 days. […] (C) The CCK-8 analysis of RAW 264.7 cells treated with 20 μM AdipoRon or 5 μM AdipoAI for 48 h. (D) The CCK-8 analysis of RAW 264.7 cells' proliferation at different doses of APR and AdipoAI. Cells were treated with 100 ng/ml RANKL for 2 days with or without AdipoRon (5, 20 μM) or AdipoAI (5, 20 μM) every 2 days for 4 days. […] Data are shown as mean±SD., compared with the vehicle-treated group, *P<0.05. **P<0.01. ***P<0.001.
RAW 264.7 cells (2×10^3 cells/well) were seeded in 96-well plates and treated with or without AdipoRon or AdipoAI for 48 hours in a humidified chamber at 37° C. in 5% CO2 and air. Cell viability was determined with the Cell Counting Kit-8 (CCK-8 kit, Dojindo, Santa Clara, CA, USA) following the manufacturer's recommendations. Briefly, CCK-8 solution (10 μL) was added to each well and cells were incubated in dark for 3 hours. Cell viability was determined by measuring the absorbance at 450 nm.

[1] = tested on: LPS-stimulated Raw264.7 cells; assay: mRNA microarray analysis of LPS-stimulated Raw264.7 cells; type: cell-based
Procedure: FIG. 2 AdipoAI suppresses LPS-stimulated inflammatory responses in macrophages. (a) Raw264.7 cells or (b) BMMs were pretreated with APR (20 μM) or AdipoAI (5 μM) for 24 h followed by incubation with LPS (100 ng/mL) for additional 6 h for the measurement of IL-6 and IL-1β in supernatants by ELISA. Data were expressed as the mean±SEM at five biological independent experiments. One-way ANOVA test for multiple-group comparisons, * vs. LPS group, *P<0.05, significant differences between each indicated group. (c) PEMs were isolated from C57BL/6J mice (n=5 mice/group) were injected i.p. with ImL 4% thioglycolate solution or AdipoAI (25 mg/kg) for the measurement of IL-6 and IL-1β. The amounts of IL-6 and IL-1β in supernatant were measured by ELISA. Data were expressed as the mean±SEM (n=5). Two-tailed Student's t-test for two groups, *P<0.05, significant differences between each indicated group. (d-f) Impact of AdipoAI on basal (d) and LPS-induced expression of an array of proinflammatory cytokines, chemokines, and receptors (e,f) in Raw264.7 cells (4 groups and 3 biological replicates/group). Data analyses were performed according to the manufacturer's instructions with their web-based software package (www.qiagen.com/us/shop/genes-and-pathways/data-analysis-center overview-page/). (g) Differentiated expressed genes annotated to a gene-ontology term and example genes by gene-ontology-enrichment analysis of each component. (brown: LPS vs control; black: AdipoAI+LPS vs LPS). (h) Differentially expressed M1 and M2 genes are shown according to the microarray databases. […]
FIG. 7 AdipoAI regulated methylation level of the c-Maf gene promoter to suppress c-Maf activation in LPS-induced macrophages. […] (b) mRNA levels of c-Maf were determined by qPCR in Raw264.7 cells, BMMs and PEMs treated with AdiopoAI or LPS. Data were expressed as the mean±SEM at five […] biological independent experiments. […] (c) c-Maf mRNA expression levels in lung, spleen, liver and WAT of LPS-induced endotoxemia mice were measured by qRT-PCR and normalized with GAPDH mRNA levels. Data are expressed as mean±SEM (n=6). […]

[2] = tested on: AdipoR1/2 mRNA expression; assay: qRT-PCR of AdipoR1/2 mRNA in Raw264.7 cells; type: cell-based; settings: 24 h
Procedure: FIG. 10 Raw264.7 cells were treated with different doses of AdipoAI for 24 h to measure AdipoR1/2 mRNA expression by qRT-PCR. Data were expressed as the mean±SEM at five biological independent experiments. One-way ANOVA test for multiple-group comparisons, * vs. control group. *P<0.05, significant differences between each indicated group.
Total RNA of cells was extracted using Quick-RNA Miniprep Kit (ZYMO Research, Irvine, CA, USA) and total RNA from mouse tissues was prepared with TriZol reagent (Life Technologies) according to the manufacturer's instructions followed by qRT-PCR assays as described previously (L. Zhang et al., 2014). 1 μg of total RNA was used for reverse transcription using the M-MLV Reverse Transcriptase (Thermo Scientific, Waltham, MA, USA) according to the manufacturer's protocol using PowerUp SYBR Green Master Mix (Thermo Scientific) on a Bio-Rad iQ5 thermal cycler (Bio-Rad Laboratories, Hercules, CA, USA). Differences in expression were evaluated by the comparative cycle threshold method using GAPDH or β-actin as a control. The primer sequences used for the qRT-PCR experiments are listed in supplemental Table 1.

SMILES: O=C(COc1ccc(C(=O)c2ccccc2)cc1)NC1CCN(Cc2ccccc2)CC1 [AdipoRon, reference compound]
- binding affinity for AdipoRs (AdipoRs): low binding affinity for AdipoRs
- number of RAW 264.7 cells (CCK-8) at 20 μM (RAW 264.7 cells): did not reduce the number of RAW 264.7 cells

SMILES: COc1ccc(CN2CCC(NC(=O)COc3ccc(C(=O)c4ccc(Cl)cc4)cc3)CC2)cc1 [Compound 3]
- expression of M1 or M2 macrophage-related genes ([1]; LPS-induced Raw264.7 cells): did not alter the expression of M1 or M2 macrophage-related genes
- expression of proinflammatory cytokines, chemokines and receptors (microarray) ([1]; LPS-stimulated Raw264.7 cells): decreased the expression of the same genes to near basal levels
- c-Maf mRNA levels (microarray) ([1]; LPS-treated Raw264.7 cells): inhibited
- mRNA levels of AdipoRs [2]: increased the mRNA levels of AdipoRs
